Reference: ChEMBL document CHEMBL1201862, “PubChem BioAssay data set” (2004)
Activity calls are given as the source filed them.

Tests used:
[1] = target: Dual specificity tyrosine-phosphorylation-regulated kinase 1A (Rattus norvegicus, UniProt Q63470); assay type: biochemical, Homo sapiens
[2] = HeLa cell cytotoxicity, dose response, cytotoxicity control for MgcRacGAP inhibitor project (AID 624300); assay type: functional
[3] = target: T1, Rac GTPase-activating protein 1 (Homo sapiens, UniProt Q9H0H5); experiment: MgcRacGAP GTPase-activating activity inhibitors, confirmation, biochemical, ADP Hunter fluorescence, primary and confirmatory (AID 624330); assay type: functional
T1 sequence (Q9H0H5 whole entry): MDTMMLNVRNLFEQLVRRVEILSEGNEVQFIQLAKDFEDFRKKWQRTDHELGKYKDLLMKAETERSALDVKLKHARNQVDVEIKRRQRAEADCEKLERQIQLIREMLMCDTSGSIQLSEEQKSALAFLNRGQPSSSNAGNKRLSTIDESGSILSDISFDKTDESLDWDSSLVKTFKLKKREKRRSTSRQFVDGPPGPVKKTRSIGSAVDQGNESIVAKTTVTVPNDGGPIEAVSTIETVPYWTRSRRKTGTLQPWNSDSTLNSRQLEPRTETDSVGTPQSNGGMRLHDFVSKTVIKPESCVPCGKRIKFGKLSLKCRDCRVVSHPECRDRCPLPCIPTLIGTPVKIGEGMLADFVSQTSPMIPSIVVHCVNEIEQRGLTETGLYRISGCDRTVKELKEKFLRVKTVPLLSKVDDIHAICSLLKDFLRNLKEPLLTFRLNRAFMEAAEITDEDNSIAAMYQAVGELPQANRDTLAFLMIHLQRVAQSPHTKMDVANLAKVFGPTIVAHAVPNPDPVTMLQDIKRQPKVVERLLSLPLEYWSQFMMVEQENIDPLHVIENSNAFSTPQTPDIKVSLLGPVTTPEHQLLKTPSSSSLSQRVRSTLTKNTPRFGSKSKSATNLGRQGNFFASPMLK

Ephrin type-A receptor 4 = Ephrin type-A receptor 4 (Mus musculus, UniProt Q03137); experiment: inhibitors of EphA4 binding to KYL peptide, primary screen, biochemical, colorimetric, mouse EphA4 (AID 689); assay type: functional
Sequence of Ephrin type-A receptor 4 (Q03137 whole entry): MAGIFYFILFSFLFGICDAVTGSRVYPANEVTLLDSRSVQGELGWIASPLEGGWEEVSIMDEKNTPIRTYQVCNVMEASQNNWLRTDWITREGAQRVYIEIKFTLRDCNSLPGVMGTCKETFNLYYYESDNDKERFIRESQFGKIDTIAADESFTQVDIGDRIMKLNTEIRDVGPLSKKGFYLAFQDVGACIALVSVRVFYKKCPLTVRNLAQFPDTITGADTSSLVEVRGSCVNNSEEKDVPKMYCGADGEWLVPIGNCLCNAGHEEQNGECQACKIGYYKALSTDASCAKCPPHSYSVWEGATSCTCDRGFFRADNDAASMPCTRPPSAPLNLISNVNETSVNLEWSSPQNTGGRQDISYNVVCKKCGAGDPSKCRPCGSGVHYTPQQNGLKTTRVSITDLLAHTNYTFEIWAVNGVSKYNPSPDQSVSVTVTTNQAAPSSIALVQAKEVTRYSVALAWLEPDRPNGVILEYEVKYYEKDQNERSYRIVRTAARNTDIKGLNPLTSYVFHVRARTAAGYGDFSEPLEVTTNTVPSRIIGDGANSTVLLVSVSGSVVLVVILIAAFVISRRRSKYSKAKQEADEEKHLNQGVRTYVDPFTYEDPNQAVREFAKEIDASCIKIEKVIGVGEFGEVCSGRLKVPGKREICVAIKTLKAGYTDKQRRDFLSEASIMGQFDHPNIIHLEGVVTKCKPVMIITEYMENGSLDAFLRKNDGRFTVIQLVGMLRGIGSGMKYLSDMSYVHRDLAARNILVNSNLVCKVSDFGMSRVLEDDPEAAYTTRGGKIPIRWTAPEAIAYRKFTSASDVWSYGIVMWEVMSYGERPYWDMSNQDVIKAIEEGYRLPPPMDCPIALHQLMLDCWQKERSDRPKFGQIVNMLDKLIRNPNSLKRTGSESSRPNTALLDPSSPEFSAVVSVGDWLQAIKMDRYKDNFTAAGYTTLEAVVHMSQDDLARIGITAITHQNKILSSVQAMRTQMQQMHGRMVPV

[4] = target: T2, Adenosylmethionine-8-amino-7-oxononanoate aminotransferase (Mycobacterium tuberculosis, UniProt P9WQ81); experiment: Mycobacterium tuberculosis BioA enzyme inhibitor Measured in Biochemical System Using Plate Reader - 2163-02_Inhibitor_Dose_CherryPick_Activity.; assay type: functional, Mycobacterium tuberculosis UT205
T2 sequence (P9WQ81 whole entry): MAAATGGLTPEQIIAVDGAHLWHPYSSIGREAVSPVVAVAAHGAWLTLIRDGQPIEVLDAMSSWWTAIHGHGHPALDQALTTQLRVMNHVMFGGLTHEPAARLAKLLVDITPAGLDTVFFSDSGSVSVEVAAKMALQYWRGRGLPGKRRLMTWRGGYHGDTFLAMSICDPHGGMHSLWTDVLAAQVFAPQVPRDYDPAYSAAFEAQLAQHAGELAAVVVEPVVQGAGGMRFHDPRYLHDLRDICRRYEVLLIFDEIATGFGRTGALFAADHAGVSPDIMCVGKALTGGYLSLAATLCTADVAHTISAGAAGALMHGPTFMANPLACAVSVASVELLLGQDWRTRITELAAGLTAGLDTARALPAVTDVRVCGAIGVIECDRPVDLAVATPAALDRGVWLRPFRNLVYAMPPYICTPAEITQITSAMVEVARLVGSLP

[5] = target: T3, Probable nicotinate-nucleotide adenylyltransferase (Staphylococcus aureus (strain N315), UniProt P65502); assay type: functional, Staphylococcus aureus subsp. aureus N315;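 as to IC50 Mean: confirmatory dose-response retesting of NadD inhibitor hits first found in an ultra-high-throughput screen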
T3 sequence (P65502 whole entry): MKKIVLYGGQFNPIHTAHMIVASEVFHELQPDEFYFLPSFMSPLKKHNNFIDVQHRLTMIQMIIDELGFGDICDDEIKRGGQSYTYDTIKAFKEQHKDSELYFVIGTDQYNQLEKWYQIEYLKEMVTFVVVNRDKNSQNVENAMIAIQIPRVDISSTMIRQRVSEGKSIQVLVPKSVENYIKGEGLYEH

[6] = target: T3, Probable nicotinate-nucleotide adenylyltransferase; assay type: functional, Staphylococcus aureus subsp. aureus N315; settings: read-out: IC50_Mean
[7] = target: T4, DNA repair protein RAD52 homolog (Homo sapiens, UniProt P43351); assay type: functional, biochemical
T4 sequence (P43351 whole entry): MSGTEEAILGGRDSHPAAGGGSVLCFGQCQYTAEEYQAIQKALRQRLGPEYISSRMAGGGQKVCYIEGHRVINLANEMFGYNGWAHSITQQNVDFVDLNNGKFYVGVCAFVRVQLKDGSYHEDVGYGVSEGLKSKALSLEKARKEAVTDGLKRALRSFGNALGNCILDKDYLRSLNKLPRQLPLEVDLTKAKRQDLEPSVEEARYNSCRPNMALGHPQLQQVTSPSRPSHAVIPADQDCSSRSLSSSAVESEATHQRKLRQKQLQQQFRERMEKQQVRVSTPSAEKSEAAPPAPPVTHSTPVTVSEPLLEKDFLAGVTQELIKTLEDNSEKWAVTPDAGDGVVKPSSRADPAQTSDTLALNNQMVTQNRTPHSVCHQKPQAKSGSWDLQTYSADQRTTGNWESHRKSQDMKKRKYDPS

[8] = target: T5, Voltage-gated N-type calcium channel alpha-1B subunit/Amyloid beta A4 precursor protein-binding family A member 1 (Homo sapiens, UniProt Q00975+Q02410); assay type: protein assay
T5 sequence (Q00975 whole entry): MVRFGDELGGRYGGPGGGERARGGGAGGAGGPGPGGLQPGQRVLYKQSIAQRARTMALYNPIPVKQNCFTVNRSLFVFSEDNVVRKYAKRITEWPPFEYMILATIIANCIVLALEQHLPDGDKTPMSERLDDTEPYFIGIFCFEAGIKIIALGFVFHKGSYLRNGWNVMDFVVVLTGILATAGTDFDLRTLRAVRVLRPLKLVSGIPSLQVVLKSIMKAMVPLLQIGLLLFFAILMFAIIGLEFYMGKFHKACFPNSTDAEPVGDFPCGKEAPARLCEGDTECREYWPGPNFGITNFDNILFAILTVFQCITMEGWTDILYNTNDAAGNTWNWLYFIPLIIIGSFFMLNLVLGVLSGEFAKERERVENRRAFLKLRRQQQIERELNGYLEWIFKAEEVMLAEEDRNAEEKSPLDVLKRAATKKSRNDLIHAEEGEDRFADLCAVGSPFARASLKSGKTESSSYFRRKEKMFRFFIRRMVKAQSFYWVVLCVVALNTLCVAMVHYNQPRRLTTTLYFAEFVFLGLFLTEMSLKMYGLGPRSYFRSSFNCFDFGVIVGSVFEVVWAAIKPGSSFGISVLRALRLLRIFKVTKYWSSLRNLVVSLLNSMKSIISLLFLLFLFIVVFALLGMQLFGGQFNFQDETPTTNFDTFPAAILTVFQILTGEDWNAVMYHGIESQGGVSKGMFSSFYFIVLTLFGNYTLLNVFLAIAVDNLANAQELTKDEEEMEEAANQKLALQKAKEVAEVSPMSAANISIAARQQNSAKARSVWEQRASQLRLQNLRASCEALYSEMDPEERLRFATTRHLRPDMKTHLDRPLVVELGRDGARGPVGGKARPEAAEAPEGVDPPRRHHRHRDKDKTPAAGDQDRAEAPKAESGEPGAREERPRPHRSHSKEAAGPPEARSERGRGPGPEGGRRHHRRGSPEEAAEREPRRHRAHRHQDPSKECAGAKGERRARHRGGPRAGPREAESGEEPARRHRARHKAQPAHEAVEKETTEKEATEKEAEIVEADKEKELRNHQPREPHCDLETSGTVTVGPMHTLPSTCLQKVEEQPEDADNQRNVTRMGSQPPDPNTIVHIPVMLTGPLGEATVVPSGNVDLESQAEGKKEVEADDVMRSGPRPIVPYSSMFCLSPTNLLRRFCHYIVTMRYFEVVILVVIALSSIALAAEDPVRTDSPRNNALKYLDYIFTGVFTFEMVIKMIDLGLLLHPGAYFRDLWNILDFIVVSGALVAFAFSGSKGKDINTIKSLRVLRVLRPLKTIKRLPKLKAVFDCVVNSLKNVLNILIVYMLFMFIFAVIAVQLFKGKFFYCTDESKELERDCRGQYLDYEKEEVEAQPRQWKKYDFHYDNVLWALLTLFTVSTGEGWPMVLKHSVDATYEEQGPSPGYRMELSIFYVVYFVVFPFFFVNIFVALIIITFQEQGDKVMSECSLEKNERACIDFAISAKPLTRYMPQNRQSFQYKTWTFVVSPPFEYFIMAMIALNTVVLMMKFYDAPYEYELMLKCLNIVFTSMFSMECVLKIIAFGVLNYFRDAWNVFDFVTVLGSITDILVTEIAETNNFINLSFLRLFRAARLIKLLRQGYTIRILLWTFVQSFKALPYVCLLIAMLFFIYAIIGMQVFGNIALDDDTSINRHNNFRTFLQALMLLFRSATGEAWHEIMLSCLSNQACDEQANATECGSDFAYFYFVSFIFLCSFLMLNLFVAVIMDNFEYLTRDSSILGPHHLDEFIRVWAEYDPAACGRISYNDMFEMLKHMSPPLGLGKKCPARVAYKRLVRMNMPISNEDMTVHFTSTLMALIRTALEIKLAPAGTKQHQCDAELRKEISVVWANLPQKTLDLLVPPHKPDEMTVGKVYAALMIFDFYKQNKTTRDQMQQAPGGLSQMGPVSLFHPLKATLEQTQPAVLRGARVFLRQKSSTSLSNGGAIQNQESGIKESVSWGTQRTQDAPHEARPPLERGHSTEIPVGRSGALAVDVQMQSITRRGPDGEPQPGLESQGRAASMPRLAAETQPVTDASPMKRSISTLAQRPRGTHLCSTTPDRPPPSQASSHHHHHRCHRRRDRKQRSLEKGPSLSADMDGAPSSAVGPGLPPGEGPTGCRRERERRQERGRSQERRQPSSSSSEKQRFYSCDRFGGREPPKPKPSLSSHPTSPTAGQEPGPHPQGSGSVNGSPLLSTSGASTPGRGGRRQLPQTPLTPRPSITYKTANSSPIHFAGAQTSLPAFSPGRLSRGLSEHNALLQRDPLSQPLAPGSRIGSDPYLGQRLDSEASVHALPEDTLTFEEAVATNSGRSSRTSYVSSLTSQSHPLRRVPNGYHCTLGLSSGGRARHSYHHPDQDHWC
T5 sequence (Q02410 whole entry): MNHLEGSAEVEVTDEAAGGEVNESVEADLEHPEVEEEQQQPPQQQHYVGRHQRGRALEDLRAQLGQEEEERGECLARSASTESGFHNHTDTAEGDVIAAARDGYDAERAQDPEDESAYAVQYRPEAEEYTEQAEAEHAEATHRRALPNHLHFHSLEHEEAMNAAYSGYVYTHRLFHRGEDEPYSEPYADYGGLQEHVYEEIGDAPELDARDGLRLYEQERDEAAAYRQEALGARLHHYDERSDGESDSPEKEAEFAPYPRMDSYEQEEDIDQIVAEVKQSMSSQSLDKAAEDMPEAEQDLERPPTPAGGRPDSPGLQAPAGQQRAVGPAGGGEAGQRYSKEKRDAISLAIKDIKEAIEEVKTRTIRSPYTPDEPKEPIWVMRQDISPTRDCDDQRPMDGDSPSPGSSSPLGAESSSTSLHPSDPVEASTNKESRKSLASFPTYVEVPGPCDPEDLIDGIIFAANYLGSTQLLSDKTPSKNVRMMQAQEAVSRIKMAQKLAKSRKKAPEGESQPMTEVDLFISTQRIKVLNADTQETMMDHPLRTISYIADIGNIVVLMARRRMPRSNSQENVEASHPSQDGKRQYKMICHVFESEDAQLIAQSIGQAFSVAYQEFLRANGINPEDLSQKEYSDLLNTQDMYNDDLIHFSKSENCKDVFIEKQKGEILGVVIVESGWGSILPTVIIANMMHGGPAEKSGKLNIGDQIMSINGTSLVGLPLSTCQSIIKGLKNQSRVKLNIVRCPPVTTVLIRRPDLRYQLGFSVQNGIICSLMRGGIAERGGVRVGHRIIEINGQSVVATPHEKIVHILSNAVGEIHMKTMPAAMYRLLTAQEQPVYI

[9] = target: T5, Voltage-gated N-type calcium channel alpha-1B subunit/Amyloid beta A4 precursor protein-binding family A member 1; assay type: protein assay; remark: listed apart in the source
H9c2 = experiment: cells; assay type: functional, cell-based; settings: Rattus norvegicus, H9c2, Myocardium
Caspase-6 = target: T6, Caspase-6 (Homo sapiens, UniProt P55212); experiment: human caspase-6 inhibitors, dose response, biochemical, VEID-R110 fluorescence, cherry-pick (AID 720632)
T6 sequence (P55212 whole entry): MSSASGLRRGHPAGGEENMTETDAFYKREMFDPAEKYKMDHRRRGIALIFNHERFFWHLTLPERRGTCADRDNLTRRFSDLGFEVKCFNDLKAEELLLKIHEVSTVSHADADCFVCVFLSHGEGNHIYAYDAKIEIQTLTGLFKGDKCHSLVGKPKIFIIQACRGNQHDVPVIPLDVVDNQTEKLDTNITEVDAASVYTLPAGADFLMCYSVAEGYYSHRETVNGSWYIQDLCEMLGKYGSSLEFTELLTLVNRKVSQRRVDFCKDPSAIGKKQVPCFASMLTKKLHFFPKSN

[10] = inhibitors of clade B AD8 Env fusion, dose response, cell-based, cherry-pick (AID 652062); assay type: functional;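 also: luciferase signal from cell-cell fusion driven by HIV-1 clade B AD8 Env; potency is for inhibitors of fusion seen as a drop in luminescence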
[11] = Late stage assay provider results from the probe development effort to identify selective inhibitors of heat shock protein 90 (HSP90): Absorbance-based cell proliferation assay in SKBR3 cells.; assay type: functional; settings: SK-BR-3
[12] = Late stage assay provider results from the probe development effort to identify selective inhibitors of heat shock protein 90 (HSP90): Absorbance-based cell proliferation assay in MCF7 cells.; assay type: functional
[13] = P. falciparum 3D7-ScDHODH growth inhibitors, dose response, SYBR Green, dry powder samples (AID 1159570); assay type: functional, cell-based;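 also: parasite growth measured after 72 hours of compound exposure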
[14] = P. falciparum Dd2 growth inhibitors, dose response, SYBR Green, cherry-picked samples (AID 1159567); assay type: functional, cell-based
[15] = P. falciparum Dd2 growth inhibitors, dose response, SYBR Green, dry powder samples (AID 1159566); assay type: functional, cell-based;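 also: potency for growth inhibition with lower SYBR green DNA signal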
[16] = P. falciparum ATP4 D1247Y mutant growth inhibitors, dose response, NITD609-resistant line, SYBR Green, dry powder (AID 1159571); assay type: functional, cell-based;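 also: parasites synchronized at ring stage by sorbitol before testing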
[17] = HepG2 cell cytotoxicity, dose response, cytotoxicity control, cherry-picked samples (AID 1159577); assay type: functional, cell-based
[18] = Luminescence Cell-Based Dose Response HTS to Identify Inhibitors of 5'UTR Stem-Loop Driven Prion Protein mRNA Translation in H4 Neuroglioblastoma Cells. [Related pubchem assays: 1827 (Project Summary), 1813 (Primary HTS)]; assay type: functional
cells [19] = assay type: functional, cell-based
[20] = target: T7, Trace amine-associated receptor 1 (Homo sapiens, UniProt Q96RJ0); experiment: Fluorescence-based cell-based high throughput dose response assay to identify agonists of the human trace amine associated receptor 1 (TAAR1).; assay type: functional
T7 sequence (Q96RJ0 whole entry): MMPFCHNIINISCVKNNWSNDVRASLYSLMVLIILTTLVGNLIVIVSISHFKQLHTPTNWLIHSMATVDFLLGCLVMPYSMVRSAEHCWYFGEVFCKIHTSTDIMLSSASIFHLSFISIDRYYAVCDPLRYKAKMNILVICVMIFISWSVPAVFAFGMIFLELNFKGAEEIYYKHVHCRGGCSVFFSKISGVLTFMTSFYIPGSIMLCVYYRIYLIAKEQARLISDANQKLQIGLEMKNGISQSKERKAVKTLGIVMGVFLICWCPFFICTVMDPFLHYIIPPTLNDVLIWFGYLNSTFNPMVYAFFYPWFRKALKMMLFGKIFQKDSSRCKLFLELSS

[21] = target: T7, Trace amine-associated receptor 1; experiment: Counterscreen for agonists of the human trace amine associated receptor 1 (hTAAR1): Fluorescence-based cell-based high throughput dose response assay to identify hTAAR1 agonist that also desensitize TAAR1 receptor response.; assay type: functional
cells [22] = assay type: functional, cell-based; remark: listed apart in the source
[23] = A549 cell cytotoxicity, dose response, cytotoxicity control, plate reader, cherry-pick, antagonist series (AID 743412); assay type: functional, cell-based
[24] = HepG2 cell cytotoxicity, dose response, cytotoxicity control, plate reader, cherry-pick, antagonist series (AID 743416); assay type: functional, cell-based
[25] = LGR2 antagonists, dose response, cell-based, HEK293, CRE-luciferase reporter, cherry pick, set 2 (AID 743343); assay type: functional;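 also: transfected cells were stimulated with diluted bursicon conditioned medium after compound addition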
[26] = MC4R antagonists, dose response, counter-screen for LGR2 antagonist project, cell-based, plate reader, cherry pick (AID 743444); assay type: functional;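 also: transfected HEK 293 cells stimulated with alpha-MSH peptide; potency of inhibitors of the alpha-MSH evoked signal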

## COc1cc(/C=C2\SC(Nc3ccccc3)=NC2=O)cc(Cl)c1O
[1]
  AC50: 7.03 µM (active)
[2]
  CC50: 100 µM (active)
[3]
  IC50: 55.7 µM (active)

## N#Cc1sc2nc(-c3cccs3)cc(-c3ccccc3)c2c1N
Ephrin type-A receptor 4
  IC50: > 100 µM (not active)

## O=C(Nc1cccnc1)c1ccc(N2CCCC2)c([N+](=O)[O-])c1
[4]
  AC50: 1.19 µM (active)

## Fc1ccc(-c2cc3nc4c(c(N5CCOCC5)n3n2)CCCC4)cc1
Ephrin type-A receptor 4
  IC50: > 100 µM (not active)

## CCc1nc(Nc2ccc(O)cc2)c2oc3ccccc3c2n1
[2]
  CC50: 87.6 µM (active)
[3]
  IC50: 18.2 µM (active)

## COc1ccc(NC(=O)N(C)C[C@H]2Oc3ccc(NC(=O)c4ccncc4)cc3C(=O)N([C@H](C)CO)C[C@@H]2C)cc1
[5]
  IC50: 27.8 µM (active)
[6]
  IC50: 40.4 µM (active)

## Cc1cc(N(CCCl)CCCl)ccc1C=NNC(=O)Cc1cc(=O)oc2cc(O)ccc12
[5]
  IC50: 8.75 µM (active)
[6]
  IC50: 28.7 µM (active)

## COc1cc2c3cc1Oc1cc(ccc1O)C[C@@H]1c4c(cc(OC)c(O)c4Oc4cccc(c4)C[C@@H]3N(C)CC2)CC[N+]1(C)C
[4]
  AC50: 15.4 µM (active)
[7]
  AC50: 8.2 µM (active)

## Cn1c2ccccc2c2cc(/C=N/NC(=O)c3cc(O)ccc3O)ccc21
[8]
  IC50: 15.2 µM (active)
[9]
  IC50: 4.94 µM (active)
H9c2
  IC50: > 79 µM (inactive)
[5]
  IC50: 18 µM (active)
[6]
  IC50: 37.3 µM (active)
Caspase-6
  AC50: 43.1 µM (active)

## CN(C)C(=O)C[C@@H]1C[C@@H]2c3cc(NC(=O)c4cccnc4)ccc3O[C@@H]2[C@@H](CO)O1
[4]
  AC50: 12.7 µM (active)

## CCC(=O)N1CC[C@@H]2[C@H]1c1cc(-c3cccc(F)c3)ccc1N(C)[C@H]2CO
[4]
  AC50: 5.53 µM (active)

## CCCCS(=O)(=O)N1CCN(C(=O)C(=O)c2cccc(C(F)(F)F)c2)CC1
[10]
  AC50: 49.5 µM (active)

## CCOc1ccccc1N/C=C1\C(=O)OC(=O)c2ccccc21
[11]
  IC50: > 100 µM (inactive)
[12]
  IC50: > 100 µM (inactive)

## CCCCc1ccc(NC(=O)c2cc(=O)c(OC)c[nH]2)cc1
[11]
  IC50: > 100 µM (inactive)
[12]
  IC50: > 100 µM (inactive)

## COc1ccc2oc(=O)c(Br)cc2c1
[11]
  IC50: 80.2 µM (inactive)
[12]
  IC50: > 100 µM (inactive)

## O=C1OC(=O)/C(=C\NC23CC4CC(CC(C4)C2)C3)C=C1Br
[11]
  IC50: 12.9 µM (inactive)
[12]
  IC50: 2.6 µM (active)

## C/N=C1/S/C(=C\c2ccc(O)c(Br)c2)C(=O)N1C
[1]
  AC50: 0.194 µM (active)
[2]
  CC50: 74.9 µM (active)
[3]
  IC50: 42 µM (active)

## COc1ccc2c3c(n(C)c2c1)[C@@H](CO)N(C(=O)C1CC1)CC31CN(C(=O)Nc2cccc(F)c2)C1
[13]
  AC50: 0.209 µM (active)
[14]
  AC50: 0.692 µM (active)
[15]
  AC50: 0.196 µM (active)
[16]
  AC50: 0.164 µM (active)

## COc1ccc2c3c([nH]c2c1)[C@H](CO)N(S(=O)(=O)c1ccc(C)cc1)CC31CCN(C(=O)Cc2cccnc2)CC1
[13]
  AC50: 0.54 µM (active)
[14]
  AC50: 1.19 µM (active)
[15]
  AC50: 0.332 µM (active)
[17]
  AC50: > 39 µM (inactive)
[16]
  AC50: 0.265 µM (active)

## CN1C(=O)c2cc(NC(=O)c3ccc4c(c3)OCO4)ccc2OC[C@@H]2O[C@@H](CC(=O)O)CC[C@@H]21
[17]
  AC50: 38.5 µM (active)

## COc1ccccc1-c1ccc2c(c1)[C@H]1[C@H](CCN1C(=O)C1CCC1)[C@H](CO)N2
[14]
  AC50: 5.25 µM (active)
[17]
  AC50: 30.5 µM (active)

## Cc1ccc(Nc2nc(N)c3ccccc3n2)cc1C
[18]
  EC50: 7.32 µM (active)
Cells [19]
  IC50: > 29.9 µM (inactive)
[20]
  EC50: 4.53 µM (active)
[21]
  IC50: 8.34 µM (active)
Cells [22]
  EC50: > 29.9 µM (inactive)
[23]
  AC50: 34 µM (active)
[24]
  AC50: 2.36 µM (active)
[25]
  AC50: 2.9 µM (active)
[26]
  AC50: 5 µM (active)
